Results taken from publication PMC12592502, “Unraveling the mechanisms behind the enhanced efficacy of β-lactam-based sideromycins” (Communications Biology, 2025).
In brackets after ≈: the same amount, converted by molar mass. Like-named read-outs stand apart in the source and are kept apart here.

Legend:
[1] = system: E. coli PBP3; design: method as in PMID 29061741; settings: cited from earlier work
[2] = system: CC1(C)S[C@@H]2[C@H](NC(=O)[C@H](N)c3ccccc3)C(=O)N2[C@H]1C(=O)O; assay: purified protein, by the assay type; settings: other: Michaelis–Menten curves, n = 3, 25 °C, pH 7.0
[3] = system: O=C(Cc1cccs1)N[C@@H]1C(=O)N2C(C(=O)O)=C(/C=C/c3ccc([N+](=O)[O-])cc3[N+](=O)[O-])CS[C@H]12; assay: purified protein, by the assay type; settings: other: Michaelis–Menten curves, n = 3, 25 °C, pH 7.0
[4] = system: P. aeruginosa 1625 ΔmexAB-oprM, ΔmexEF-oprN; assay: MIC, efflux pump mutant; type: cell-based, Pseudomonas aeruginosa; settings: Pseudomonas aeruginosa
Experimental: (§1) Minimal inhibitory concentrations (MICs) were performed using a broth microdilution technique according to the Clinical and Laboratory Standards Institute (CLSI) guidelines. MICs were determined in MHBCA and in ID-MHBCA. To check the impact of β-lactamases, MICs in the presence of a β-lactamase inhibitor were also determined. The inhibitor was homogenized at 2X the final concentration and added to the bacterial inoculum just before distributing cells into the wells containing the drug dilutions. The final concentration of each inhibitor was 4 μg/mL for clavulanic acid (tested against K. pneumoniae) and 200 μg/mL for 3-aminophenylboronic acid (tested against P. aeruginosa and A. baumannii).

[5] = system: P. aeruginosa 2302 MexAB, MexCD, MexEF upregulated; assay: MIC, efflux pump overexpressing strain; type: cell-based, Pseudomonas aeruginosa; settings: Pseudomonas aeruginosa
Experimental: as §1

[6] = target: AmpC (PDC-5) (Pseudomonas aeruginosa, UniProt P24735, R79Q/T105A); assay: biochemical; type: biochemical, P. aeruginosa ATCC 27853; settings: n = 2
Experimental: The purification of AmpC from the culture supernatant obtained above was conducted as described in the Catwright and Waley protocol[52] using an Affi-gel 10 matrix (Bio-Rad, Hercules, CA, USA) loaded in a column (G-Bioscience, St-Louis, MO, USA). First, the resin was washed with cold deionized water. The resin was then collected and mixed with 20 mL of the 3-aminophenylboronic acid solution (1 M KHCO3 containing 2 g of 3-aminophenyl boronic acid and 2 g of sorbitol) at 4 °C for 1 h, and the pH was maintained at 8 with solid KHCO3. The mixture was loaded onto the column and washed with 10 column volumes of 1 M NaCl/0.5 M sorbitol (pH 7), followed by 10 column volumes of 0.5 M borate (pH 7), and then 10 column volumes of the loading buffer (20 mM triethanolamine HCl/0.5 M NaCl, pH 7). The sample was dialyzed in the loading buffer before being loaded onto the column. The column was washed with the loading buffer until no absorbance was measured at OD280. AmpC was eluted in fractions of 1 mL with 0.5 M borate/0.5 M NaCl pH 7. […] The purity was visualized on a 10% bis-acrylamide gel. Only pure fractions showing a single band at 40 kDa were pooled together and then dialyzed at 4 °C in a KP buffer 0.05 M pH 7 (see Fig. S2). The protein concentration was determined with a Bradford protein reagent (Bio-Rad).
(§2) Enzyme concentrations were 20 nM for AmpC and SHV-1, and 50 nM for OXA-98. Quartz cuvette (FireflySci Inc., Northport, NY) with 1 cm length path and 2 mm inside width was used with an Ultrospec 2100 Pro (Biochrom, Harvard Bioscience Inc., USA) to acquire the kinetic measures. […] The following extinction coefficients (Δε) and wavelengths (λ) were used:
(§3) The steady-state parameters (Km and Kcat) were determined by plotting the initial velocity against substrate concentrations (Michaelis–Menten curve). The Kcat was measured using the Vmax (μM/sec) divided by the total enzyme concentration and the catalytic efficiency was further calculated (Kcat/Km). SHV-1 parameters were determined with three Michaelis–Menten curves of at least seven substrate concentrations, while OXA-98 and AmpC were duplicates of curves of at least seven substrate concentrations. […] Initial velocities were measured at room temperature (25 °C). The Vmax and Km were calculated using least squares fit regression in GraphPad version 10.2.2. Ki was measured using a derivative of IC50 with an adaptation of the Cheng–Prusoff equation[55]. […] The corrected Ki was calculated using this formula: Kicorrected=Ki(observed)/1+S/KmNCF

[7] = system: E. coli MC4100; assay: MIC; type: cell-based, Escherichia coli; settings: MC4100, MHBCA
Experimental: (§4) All bacterial strains (see description and sources Table S1) were stored at −80 °C, and grown on tryptone soya agar (TSA) at 35 °C. The iron-deprived (ID)-MHBCA (cation-adjusted Muller-Hinton Broth, Becton Dickinson, Mississauga, ON, Canada) medium was prepared as reported by refs. [21],[50]. Briefly, MHBCA was treated with 10% Chelex® 50-100 mesh (Sigma) and stirred for 6 h at room temperature. The resin was removed by filtration. Divalent Ca^2+ (CaCl2), Mg^2+ (MgCl2), and Zn^2+(ZnSO4), were then added in the iron-depleted medium at 22, 12, and 1 μg/ml respectively. Finally, the pH was adjusted to 7.3, and the medium was sterilized with a 0.2-μm filter. Regular MHBCA (i.e., not treated with Chelex®) was used to compare the inhibitory activity of conjugates in iron-sufficient conditions.
as §1

[8] = system: E. coli lptD4213; assay: MIC, hyperpermeable mutant; type: cell-based, Escherichia coli; settings: lptD4213, MHBCA (+)
Experimental: as §4, with “conditions. The resin used for Chelex treatment was always fresh and had never been regenerated, ensuring consistent iron removal.” for “conditions.”
as §1

[9] = system: P. aeruginosa ATCC 27853; assay: MIC, broth microdilution (CLSI); type: cell-based, Pseudomonas aeruginosa; settings: MHBCA; for MIC in combination with PAβN (control antibiotics): + 25 µg/mL PAβN
Experimental: as §4, §1

[10] = system: E. coli ΔacrAB; assay: MIC, efflux pump mutant; type: cell-based, Escherichia coli
Experimental: as §1

[11] = system: CC1(C)S[C@@H]2[C@H](NC(=O)[C@H](N)c3ccccc3)C(=O)N2[C@H]1C(=O)O; assay: purified protein, by the assay type; type: biochemical, A. baumannii ATCC 19606; settings: other: 20 mM NaHCO3 added, NH = no hydrolysis detected, pH 7.0
Experimental: as §2, §3

[12] = system: O=C(Cc1cccs1)N[C@@H]1C(=O)N2C(C(=O)O)=C(/C=C/c3ccc([N+](=O)[O-])cc3[N+](=O)[O-])CS[C@H]12; assay: purified protein, by the assay type; type: biochemical, A. baumannii ATCC 19606; settings: other: 20 mM NaHCO3 added, NH = no hydrolysis detected, pH 7.0
Experimental: as §2, §3

[13] = system: A. baumannii ATCC 19606; assay: MIC, broth microdilution (CLSI); type: cell-based, Acinetobacter baumannii; settings: MHBCA
Experimental: as §4, with “conditions. The resin used for Chelex treatment was always fresh and had never been regenerated, ensuring consistent iron removal.” for “conditions.”
as §1

Sequence of AmpC (PDC-5) (P24735 27-397 R79Q/T105A): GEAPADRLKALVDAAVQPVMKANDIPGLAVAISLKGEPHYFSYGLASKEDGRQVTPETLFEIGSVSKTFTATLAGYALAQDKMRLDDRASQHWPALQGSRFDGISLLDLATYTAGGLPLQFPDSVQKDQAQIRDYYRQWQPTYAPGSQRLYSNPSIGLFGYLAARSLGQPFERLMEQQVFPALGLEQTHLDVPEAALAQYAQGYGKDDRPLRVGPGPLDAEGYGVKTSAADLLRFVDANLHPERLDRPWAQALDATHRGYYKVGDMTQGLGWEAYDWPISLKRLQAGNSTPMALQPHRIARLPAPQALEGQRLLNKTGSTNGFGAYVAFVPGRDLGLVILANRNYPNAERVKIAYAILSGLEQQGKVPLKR

In the case of `CC(C)(O/N=C(\C(=O)N[C@@H]1C(=O)N2C(C(=O)[O-])=C(C[N+]3(CCNC(=O)c4ccc(O)c(O)c4Cl)CCCC3)CS[C@H]12)c1csc(N)n1)C(=O)O` [cefiderocol], the “decrease in the IC50 for E. coli PBP3 compared to ceftazidime” value [1] is listed as 11 fold.
For SHV-1 (Klebsiella pneumoniae), the Km [2] was 164 ± 4 µM, the kcat [2] was 1565 ± 42 s⁻¹ and the kcat/Km [2] was 9.5e+06 ± 300000 M⁻¹ s⁻¹. The Km [3] was 25 ± 3 µM, the kcat [3] was 247 ± 48 s⁻¹ and the kcat/Km [3] was 9.8e+06 ± 2.3e+06 M⁻¹ s⁻¹.
In the case of `C[C@H]1COc2c(N3CCN(C)CC3)c(F)cc3c(=O)c(C(=O)O)cn1c23` [LVX, levofloxacin], the MIC [4] is reported as at most 0.06 µM, the MIC ([4]; read-out: MIC (control drug)) is reported as at most 0.06 µg/mL and the MIC [5] is reported as 16 µM. It also gave an MIC ([5]; read-out: MIC (control drug)) of 16 µg/mL.
In the case of `O=C(Cc1cccs1)N[C@@H]1C(=O)N2C(C(=O)O)=C(/C=C/c3ccc([N+](=O)[O-])cc3[N+](=O)[O-])CS[C@H]12` [NCF, nitrocefin], the “AmpC (PDC-5) Vmax” value [6] is reported as 121 ± 3 µmol·mg/min and the Km ([6]; read-out: AmpC (PDC-5) Km, Michaelis–Menten curves) is reported as 103 ± 4 µM.
With `CN[C@H](CC(C)C)C(=O)N[C@H]1C(=O)N[C@@H](CC(N)=O)C(=O)N[C@H]2C(=O)N[C@H]3C(=O)N[C@H](C(=O)N[C@H](C(=O)O)c4cc(O)cc(O)c4-c4cc3ccc4O)[C@H](O)c3ccc(c(Cl)c3)Oc3cc2cc(c3O[C@@H]2O[C@H](CO)[C@@H](O)[C@H](O)[C@H]2O[C@H]2C[C@](C)(N)[C@H](O)[C@H](C)O2)Oc2ccc(cc2Cl)[C@H]1O` [VAN, vancomycin, reference compound] the “MIC (control antibiotics)” value ([7]; without PAβN) was over 128 µg/mL and the “MIC (control antibiotic)” value [8] was 0.5 µg/mL (≈ 0.345 µM).
In the case of `CC[C@H]1OC(=O)[C@H](C)[C@@H](O[C@H]2C[C@@](C)(OC)[C@@H](O)[C@H](C)O2)[C@H](C)[C@@H](O[C@@H]2O[C@H](C)C[C@H](N(C)C)[C@H]2O)[C@](C)(O)C[C@@H](C)C(=O)[C@H](C)[C@@H](O)[C@]1(C)O` [ERY, erythromycin], the “MIC in combination with PAβN (control antibiotics)” value (shortened to “MIC in combination with PAβN”) [9] is reported as 32 µg/mL, the “MIC in combination with PAβN” value ([7]; + 25 µg/mL PAβN) is reported as 16 µg/mL and the MIC ([10]; Escherichia coli) is reported as 4 µM (≈ 2.94 µg/mL). For the same compound, the “MIC (control antibiotic)” value ([10]; deletion of acrAB) was 4 µg/mL (≈ 5.45 µM) and the “reduction of MIC by deletion of acrAB” value ([10]; versus parent E. coli) was 32 fold.
“OXA-98 (Acinetobacter baumannii ATCC 19606 = CIP 70.34 = JCM 6841)” gave a Km [11] of 490 ± 12 µM, a kcat [11] of 22 ± 1 s⁻¹ and a kcat/Km [11] of 40000 ± 0 M⁻¹ s⁻¹. For the same compound, the Km [12] was 343 ± 10 µM, the kcat [12] was 3.5 ± 0.2 s⁻¹ and the kcat/Km [12] was 10000 ± 0 M⁻¹ s⁻¹.
For `CO[C@H]1/C=C/O[C@@]2(C)Oc3c(C)c(O)c4c(O)c(c(/C=N/N5CCN(C)CC5)c(O)c4c3C2=O)NC(=O)/C(C)=C\C=C\[C@H](C)[C@H](O)[C@@H](C)[C@@H](O)[C@@H](C)[C@H](OC(C)=O)[C@@H]1C` [RIF, rifampicin, reference compound], the “MIC in combination with PAβN” value [9] was 2 µg/mL, the “MIC (control antibiotics)” value ([9]; without PAβN) was 16 µg/mL (≈ 19.4 µM) and the “MIC in combination with PAβN” value ([13]; + 25 µg/mL PAβN) was at most 0.012 µg/mL. For the same compound, the “MIC (control antibiotics)” value ([13]; without PAβN) was 16 µg/mL (≈ 19.4 µM).
